Reference: PubChem BioAssay AID248 (DTP/NCI, 2004)
Values joined by “and” are separate entries in the source; they are usually repeats but may differ in a detail not shown here. Equal entries are not always repeated. Toxic doses and inconclusive results are not listed. Rule as the data show it: active = T/C of 150% or more; inactive = T/C below 125%.

System: L1210 leukemia ip in BDF1 mice, survival T/C
Assay: NCI In Vivo Anticancer Drug Screen. Data for tumor model L1210 Leukemia (intraperitoneal) in B6D2F1 (BDF1) mice
Settings: endpoint: mean survival time, higher = longer survival
Outline: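 Mice bearing the transplanted tumor received compound or vehicle. Survival of the treated group was divided by that of the vehicle-treated control group to give the ratio.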

[1] = dose: 100.0 mg/kg/injection, schedule: Q04DX003 (ip), vehicle: saline with Tween-80
[2] = dose: 400.0 mg/kg/injection, schedule: Q04DX003 (ip), vehicle: saline with Tween-80
[3] = dose: 50.0 mg/kg/injection, schedule: Q01DX001 (ip), vehicle: saline
[4] = dose: 100.0 mg/kg/injection, schedule: Q01DX001 (ip), vehicle: saline
[5] = dose: 200.0 mg/kg/injection, schedule: Q01DX001 (ip), vehicle: saline
[6] = dose: 100.0 mg/kg/injection, schedule: Q01DX009 (ip), vehicle: Klucel (hydroxypropylcellulose) (HPC)
[7] = dose: 200.0 mg/kg/injection, schedule: Q01DX009 (ip), vehicle: Klucel (hydroxypropylcellulose) (HPC)
[8] = dose: 400.0 mg/kg/injection, schedule: Q01DX009 (ip), vehicle: Klucel (hydroxypropylcellulose) (HPC)
[9] = dose: 25.0 mg/kg/injection, schedule: Q01DX009 (ip), vehicle: saline
[10] = dose: 50.0 mg/kg/injection, schedule: Q01DX009 (ip), vehicle: saline
[11] = dose: 100.0 mg/kg/injection, schedule: Q01DX009 (ip), vehicle: saline
[12] = dose: 100.0 mg/kg/injection, schedule: Q04DX003 (ip), vehicle: saline
[13] = dose: 200.0 mg/kg/injection, schedule: Q04DX003 (ip), vehicle: saline
[14] = dose: 25.0 mg/kg/injection, schedule: Q04DX003 (ip), vehicle: saline
[15] = dose: 50.0 mg/kg/injection, schedule: Q04DX003 (ip), vehicle: saline
[16] = dose: 200.0 mg/kg/injection, schedule: Q01DX009 (ip), vehicle: saline
[17] = dose: 100.0 mg/kg/injection, schedule: Q01DX009 (ip), vehicle: saline with Tween-80
[18] = dose: 200.0 mg/kg/injection, schedule: Q01DX009 (ip), vehicle: saline with Tween-80

Measured: T/C

CC(/C=C\c1ccc([N+](=O)[O-])cc1)=N\NC(=O)c1ccncc1
inactive: [1] 98 % of control | dose: 200.0 mg/kg/injection, schedule: Q04DX003 (ip), vehicle: saline with Tween-80 98 % of control | [2] 96 % of control

CCCC/C(=N\N=C(N)N)c1ccc(F)cc1
inactive: dose: 15.0 mg/kg/injection, schedule: Q01DX Z (ip), vehicle: methylcellulose (MC) 104 % of control | dose: 15.0 mg/kg/injection, schedule: Q01DX Z (oral), vehicle: methylcellulose (MC) 94 % of control | dose: 30.0 mg/kg/injection, schedule: Q01DX Z (ip), vehicle: methylcellulose (MC) 93 % of control | dose: 30.0 mg/kg/injection, schedule: Q01DX Z (oral), vehicle: methylcellulose (MC) 94 % of control

CCCn1c(N)cc(=O)[nH]c1=S
inactive: [3] 100 % of control | [4] 96 % of control | [5] 100 % of control | dose: 400.0 mg/kg/injection, schedule: Q01DX001 (ip), vehicle: saline 100 % of control

COc1ccc(C)cc1NC(=O)c1cccc(F)c1
inactive: [6] 106 % of control | [7] 101 % of control | [8] 97 % of control

CCN(CC)CC(OC)C(COC)OC(=O)C(c1ccccc1)c1ccccc1 (stereo unspecified)
inactive: dose: 13.0 mg/kg/injection, schedule: Q01DX Z (ip), vehicle: saline 105 % of control | dose: 20.0 mg/kg/injection, schedule: Q01DX Z (ip), vehicle: saline 98 % of control | dose: 30.0 mg/kg/injection, schedule: Q01DX Z (ip), vehicle: saline 102 % of control

CCCCC(C)(C)COc1nc(OCC(C)(C)CCCC)nc(OCC(C)(C)CCCC)n1
inactive: dose: 25.6 mg/kg/injection, schedule: Q04DX002 (ip), vehicle: saline with Tween-80 97 % of control | dose: 64.0 mg/kg/injection, schedule: Q04DX002 (ip), vehicle: saline with Tween-80 87 % of control | [1] 89 % of control | dose: 400.0 mg/kg/injection, schedule: Q04DX002 (ip), vehicle: saline with Tween-80 91 % of control | [2] 89 % of control

COc1cccc(NC(=O)c2ccc(C(=O)Nc3cccc(OC)c3)cc2)c1
inactive: [3] 98 % of control | [4] 96 % of control | [5] 91 % of control

CC(=O)OCc1c(COC(C)=O)c(-c2ccc(Cl)cc2)n2c1CCC2
inactive: dose: 12.5 mg/kg/injection, schedule: Q01DX009 (ip), vehicle: Klucel (hydroxypropylcellulose) (HPC) 95 % of control | dose: 25.0 mg/kg/injection, schedule: Q01DX009 (ip), vehicle: Klucel (hydroxypropylcellulose) (HPC) 102 % of control | dose: 50.0 mg/kg/injection, schedule: Q01DX009 (ip), vehicle: Klucel (hydroxypropylcellulose) (HPC) 117 % of control

N#Cc1cccn1O
inactive: dose: 37.5 mg/kg/injection, schedule: Q01DX009 (ip), vehicle: Klucel (hydroxypropylcellulose) (HPC) 104 % of control | dose: 75.0 mg/kg/injection, schedule: Q01DX009 (ip), vehicle: Klucel (hydroxypropylcellulose) (HPC) 100 % of control | dose: 150.0 mg/kg/injection, schedule: Q01DX009 (ip), vehicle: Klucel (hydroxypropylcellulose) (HPC) 108 % of control

CC1(O)Cn2c(nc3nccnc32)S1 (stereo unspecified)
inactive: [9] 100 % of control | [10] 96 % of control | [11] 94 % of control | [12] 100 % of control | [13] 96 % of control

COc1ccc(C2CCCCC2OS(C)(=O)=O)cc1 (stereo unspecified)
inactive: dose: 100.0 mg/kg/injection, schedule: Q01DX001 (ip), vehicle: carboxymethylcellulose (CMC) 97 % of control | dose: 200.0 mg/kg/injection, schedule: Q01DX001 (ip), vehicle: carboxymethylcellulose (CMC) 106 % of control | dose: 400.0 mg/kg/injection, schedule: Q01DX001 (ip), vehicle: carboxymethylcellulose (CMC) 95 % of control

CCC(C)c1cc([N+](=O)[O-])cc([N+](=O)[O-])c1SC(=O)N(C)C (stereo unspecified)
inactive: [6] 94 % of control | [7] 97 % of control | [8] 100 % of control

CCCCN=C(NCCCC)c1ccc(NC(=O)c2ccc(C(=O)Nc3ccc(C(=NCCCC)NCCCC)cc3)cc2)cc1
inactive: dose: 0.12 mg/kg/injection, schedule: Q01DX015 (ip), vehicle: methylcellulose (MC) 94 % of control | dose: 0.25 mg/kg/injection, schedule: Q01DX015 (ip), vehicle: methylcellulose (MC) 94 % of control | dose: 0.5 mg/kg/injection, schedule: Q01DX015 (ip), vehicle: methylcellulose (MC) 90 % of control | dose: 1.0 mg/kg/injection, schedule: Q01DX015 (ip), vehicle: methylcellulose (MC) 102 % of control | dose: 2.0 mg/kg/injection, schedule: Q01DX015 (ip), vehicle: methylcellulose (MC) 108 % of control | dose: 4.0 mg/kg/injection, schedule: Q01DX015 (ip), vehicle: methylcellulose (MC) 110 % of control | dose: 8.0 mg/kg/injection, schedule: Q01DX015 (ip), vehicle: methylcellulose (MC) 98 % of control

CCCCCCC[As](=O)(O)CCCCCCC
inactive: [3] 106 % of control | [4] 103 % of control | [5] 101 % of control

NC(=O)Nc1ccccc1O
inactive: dose: 75.0 mg/kg/injection, schedule: Q04DX002 (ip), vehicle: saline with Tween-80 102 % of control | dose: 150.0 mg/kg/injection, schedule: Q04DX002 (ip), vehicle: saline with Tween-80 87 % of control | dose: 300.0 mg/kg/injection, schedule: Q04DX002 (ip), vehicle: saline with Tween-80 97 % of control

Oc1ccc(CNCCNCCNCc2ccc(O)cc2)cc1
inactive: dose: 12.5 mg/kg/injection, schedule: Q01DX009 (ip), vehicle: saline 87 % of control | [9] 102 % of control | [14] 110 % of control | [10] 93 % of control | [15] 95 % of control | [11] 102 % of control and 92 % of control | [12] 98 % of control and 92 % of control | [16] 105 % of control

c1ccc(C(c2ccccc2)n2ccnc2)cc1
inactive: dose: 37.5 mg/kg/injection, schedule: Q04DX003 (ip), vehicle: saline 94 % of control | dose: 75.0 mg/kg/injection, schedule: Q04DX003 (ip), vehicle: saline 102 % of control | dose: 150.0 mg/kg/injection, schedule: Q04DX003 (ip), vehicle: saline 105 % of control

COc1ccc(C)cc1NC(=O)OCCOc1cc(C)c(Cl)c(C)c1
inactive: dose: 50.0 mg/kg/injection, schedule: Q01DX009 (ip), vehicle: saline with Tween-80 90 % of control | [17] 87 % of control | [18] 87 % of control

CCOC(=O)/C(C#N)=N\O
inactive: [14] 98 % of control | [10] 111 % of control | [15] 111 % of control | [11] 90 % of control | [12] 104 % of control and 88 % of control

O=C(CNC(=O)c1ccccc1)N/N=C/c1c(O)ccc2ccccc12
inactive: [17] 95 % of control | [18] 95 % of control | dose: 400.0 mg/kg/injection, schedule: Q01DX009 (ip), vehicle: saline with Tween-80 97 % of control

C1CN=C(C2=NCCCN2)NC1
inactive: [11] 107 % of control and 101 % of control | [12] 98 % of control | [16] 98 % of control and 101 % of control | [13] 98 % of control | dose: 400.0 mg/kg/injection, schedule: Q01DX009 (ip), vehicle: saline 92 % of control and 102 % of control | dose: 400.0 mg/kg/injection, schedule: Q04DX003 (ip), vehicle: saline 102 % of control

CC(C)COC(=O)C#CC(=O)OCC(C)C
inactive: dose: 25.0 mg/kg/injection, schedule: Q01DX001 (ip), vehicle: water 111 % of control | dose: 50.0 mg/kg/injection, schedule: Q01DX001 (ip), vehicle: water 106 % of control | dose: 100.0 mg/kg/injection, schedule: Q01DX001 (ip), vehicle: water 116 % of control

O=C(CNC(=O)c1ccccc1)c1ccccc1
inactive: dose: 100.0 mg/kg/injection, schedule: Q04DX002 (ip), vehicle: Klucel (hydroxypropylcellulose) (HPC) 105 % of control | dose: 200.0 mg/kg/injection, schedule: Q04DX002 (ip), vehicle: Klucel (hydroxypropylcellulose) (HPC) 102 % of control | dose: 400.0 mg/kg/injection, schedule: Q04DX002 (ip), vehicle: Klucel (hydroxypropylcellulose) (HPC) 108 % of control

C=C1CC(C)(C)C(c2ccccc2)OC1=O (stereo unspecified)
inactive: dose: 100.0 mg/kg/injection, schedule: Q01DX001 (ip), vehicle: saline with Tween-80 107 % of control | dose: 200.0 mg/kg/injection, schedule: Q01DX001 (ip), vehicle: saline with Tween-80 102 % of control
